In ChEMBL document CHEMBL1140123, “Whole structure-activity relationships of the fat-accumulation inhibitor (-)-ternatin: recognition of the importance of each amino acid residue” (J Med Chem, 2008):

Columns and labels:
3T3-L1 [1] = assay: Inhibition of fat accumulation in mouse 3T3L1 cells assessed as liberated triglyceride after 7 days; format: functional, cell-based; conditions: 3T3-L1, 168 h
[2] = Toxicity in mouse 3T3L1 cells; format: cell-based; conditions: 3T3-L1 cells
3T3-L1 [3] = assay: Inhibition of fat accumulation in mouse 3T3L1 cells assessed as liberated triglyceride after 7 days relative to (-)-ternatin; format: functional

Structure (SMILES) | IC50 (3T3-L1 [1]) [µM] | IC50 [2] [µM] | Activity (3T3-L1 [3])
CC(C)C[C@@H]1NC(=O)[C@H](CC(C)C)N(C)C(=O)[C@H](C)N(C)C(=O)[C@@H](C)NC(=O)[C@@H]([C@H](O)C(C)C)NC(=O)[C@@H](C)N(C)C(=O)[C@H](C)N(C)C1=O | > 130 | > 130 | 0.002
CC[C@H](C)[C@H]1NC(=O)[C@@H]([C@H](O)C(C)C)NC(=O)[C@@H](C)N(C)C(=O)[C@H](C)N(C)C(=O)[C@H](C)NC(=O)[C@H](CC(C)C)N(C)C(=O)[C@H](C)N(C)C1=O | > 130 | > 130 | 0.002
CCCCCC[C@H]1NC(=O)[C@@H]([C@H](O)C(C)C)NC(=O)[C@@H](C)N(C)C(=O)[C@H](C)N(C)C(=O)[C@H](CC(C)C)NC(=O)[C@H](CC(C)C)N(C)C(=O)[C@H](C)N(C)C1=O | 46 | > 130 | –
CC[C@H](C)[C@H]1NC(=O)[C@@H](C)NC(=O)[C@@H](C)N(C)C(=O)[C@H](C)N(C)C(=O)[C@H](CC(C)C)NC(=O)[C@H](CC(C)C)N(C)C(=O)[C@H](C)N(C)C1=O | 14 | > 130 | –
CC[C@H](C)[C@H]1NC(=O)[C@@H]([C@H](O)C(C)C)NC(=O)[C@@H](C)N(C)C(=O)[C@H](C)N(C)C(=O)[C@H](CC(C)C)NC(=O)[C@H](C)N(C)C(=O)[C@H](C)N(C)C1=O | 1.6 | > 29 | –
CC[C@H](C)[C@H]1NC(=O)[C@@H](COCc2ccccc2)NC(=O)[C@H](C)N(C)C(=O)[C@H](C)N(C)C(=O)[C@H](CC(C)C)NC(=O)[C@H](CC(C)C)N(C)C(=O)[C@H](C)N(C)C1=O | 5.9 | 89 | –
CCCCCC[C@H]1C(=O)N(C)[C@H](C)C(=O)N[C@H]([C@H](O)C(C)C)C(=O)N[C@H]([C@@H](C)CC)C(=O)N(C)[C@@H](C)C(=O)N(C)[C@@H](CC(C)C)C(=O)N[C@@H](CC(C)C)C(=O)N1C | 0.12 | 0.96 | –
CCCCCC[C@H]1C(=O)N[C@@H](CC(C)C)C(=O)N(C)[C@@H](C)C(=O)N(C)[C@H](C)C(=O)N[C@H]([C@H](O)C(C)C)C(=O)N[C@H]([C@@H](C)CC)C(=O)N(C)[C@@H](C)C(=O)N1C | 0.38 | 2.1 | –
CCCCCC[C@@H]1NC(=O)[C@H](CC(C)C)N(C)C(=O)[C@H](C)N(C)C(=O)[C@@H]([C@@H](C)CC)NC(=O)[C@@H]([C@H](O)C(C)C)NC(=O)[C@@H](C)N(C)C(=O)[C@H](C)N(C)C1=O | > 130 | > 130 | 0.002
CCCCCC[C@H]1C(=O)N(C)[C@@H](CC(C)C)C(=O)N[C@@H](CC(C)C)C(=O)N(C)[C@@H](C)C(=O)N(C)[C@H](C)C(=O)N[C@H]([C@H](O)C(C)C)C(=O)N[C@H]([C@@H](C)CC)C(=O)N1C | 1.1 | > 12 | –
CCCCCC[C@@H]1C(=O)N[C@H]([C@H](O)C(C)C)C(=O)N[C@H]([C@@H](C)CC)C(=O)N(C)[C@@H](C)C(=O)N(C)[C@@H](CC(C)C)C(=O)N[C@@H](CC(C)C)C(=O)N(C)[C@@H](C)C(=O)N1C | 0.016 | 0.066 | –
